Measurements taken from PubChem BioAssay (NCI).
“And” between values parts separate entries of the source, which are not always exact repeats. Equal values may be shown once.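 Cells were grown in 96-well plates and exposed to each compound for 48 hours at five concentrations; endpoints were interpolated linearly between bracketing concentrations, or set to the highest concentration if not reached. GI50 = concentration required for 50% inhibition of growth. The concentration for full growth arrest is given as TGI.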

Legend:
Test in all cases: DTP human tumour cell line panel, 48 h
A498 renal = system: A498 renal
ACHN renal = system: ACHN renal
OVCAR-3 ovarian = system: OVCAR-3 ovarian
SK-OV-3 ovarian = system: SK-OV-3 ovarian
SNB-75 CNS = system: SNB-75 CNS
HL-60(TB) leukemia = system: HL-60(TB) leukemia
BT-549 breast = system: BT-549 breast
LOX IMVI melanoma = system: LOX IMVI melanoma
OVCAR-4 ovarian = system: OVCAR-4 ovarian
SF-539 CNS = system: SF-539 CNS
HT29 colon = system: HT29 colon
A549 NSCLC = system: A549 NSCLC
UO-31 renal = system: UO-31 renal
HS 578T breast = system: HS 578T breast
786-0 renal = system: 786-0 renal
KM12 colon = system: KM12 colon
MDA-MB-435 = system: MDA-MB-435
HOP-62 NSCLC = system: HOP-62 NSCLC
UACC-62 melanoma = system: UACC-62 melanoma
NCI-H23 lung = system: NCI-H23 lung
HCT-15 colon = system: HCT-15 colon
NCI/ADR-RES ovarian = system: NCI/ADR-RES ovarian
SW-620 colon = system: SW-620 colon
RPMI-8226 leukemia = system: RPMI-8226 leukemia
MDA-MB-231 breast = system: MDA-MB-231 breast
CAKI-1 renal = system: CAKI-1 renal
EKVX NSCLC = system: EKVX NSCLC
SNB-19 CNS = system: SNB-19 CNS
PC-3 prostate = system: PC-3 prostate
MALME-3M melanoma = system: MALME-3M melanoma
SN12C renal = system: SN12C renal
SR leukemia = system: SR leukemia
NCI-H522 lung = system: NCI-H522 lung
HOP-92 NSCLC = system: HOP-92 NSCLC
M14 melanoma = system: M14 melanoma
HCT-116 colon = system: HCT-116 colon
DU-145 prostate = system: DU-145 prostate
T-47D breast = system: T-47D breast
NCI-H226 lung = system: NCI-H226 lung
U251 CNS = system: U251 CNS
OVCAR-8 ovarian = system: OVCAR-8 ovarian
IGROV1 ovarian = system: IGROV1 ovarian
UACC-257 melanoma = system: UACC-257 melanoma
SK-MEL-28 melanoma = system: SK-MEL-28 melanoma
MDA-N = system: MDA-N
SF-268 CNS = system: SF-268 CNS
OVCAR-5 ovarian = system: OVCAR-5 ovarian
MCF7 breast = system: MCF7 breast
MOLT-4 leukemia = system: MOLT-4 leukemia
RXF 393 renal = system: RXF 393 renal
SK-MEL-5 melanoma = system: SK-MEL-5 melanoma
SK-MEL-2 melanoma = system: SK-MEL-2 melanoma
COLO 205 colon = system: COLO 205 colon
CCRF-CEM leukemia = system: CCRF-CEM leukemia
SF-295 CNS = system: SF-295 CNS
NCI-H460 lung = system: NCI-H460 lung
HCC-2998 colon = system: HCC-2998 colon
K-562 leukemia = system: K-562 leukemia
TK-10 renal = system: TK-10 renal

`COc1ccc(-c2c(C#N)c(N)n(C3OCC(OC(C)=O)C(OC(C)=O)C3OC(C)=O)c(=S)c2C#N)cc1` (stereo unspecified) was tested, and the TGI (A498 renal) was 70.1 µM and 84.2 µM, the TGI (ACHN renal) was > 100 µM and the TGI (OVCAR-3 ovarian) was > 100 µM. For the same compound, the TGI (SK-OV-3 ovarian) was 85.2 µM and > 100 µM, the TGI (SNB-75 CNS) was > 100 µM and the TGI (HL-60(TB) leukemia) was 36.5 µM and 35.9 µM. The TGI (BT-549 breast) was 78.7 µM and 99 µM, the TGI (LOX IMVI melanoma) was > 100 µM and the TGI (OVCAR-4 ovarian) was > 100 µM. The TGI (SF-539 CNS) was > 100 µM, the TGI (HT29 colon) was > 100 µM and the TGI (A549 NSCLC) was > 100 µM. The TGI (UO-31 renal) was 82.6 µM and > 100 µM, the GI50 (HS 578T breast) was 33.5 µM and 76.2 µM and the TGI (HS 578T breast) was > 100 µM. For the same compound, the TGI (786-0 renal) was > 100 µM, the TGI (KM12 colon) was > 100 µM and the TGI (MDA-MB-435) was 98.6 µM and > 100 µM. The TGI (HOP-62 NSCLC) was > 100 µM, the TGI (UACC-62 melanoma) was > 100 µM and the TGI (NCI-H23 lung) was > 100 µM. For the same compound, the TGI (HCT-15 colon) was > 100 µM, the TGI (NCI/ADR-RES ovarian) was > 100 µM and the TGI (SW-620 colon) was > 100 µM. For the same compound, the TGI (RPMI-8226 leukemia) was 75.1 µM and 97.5 µM, the TGI (MDA-MB-231 breast) was > 100 µM and the TGI (CAKI-1 renal) was > 100 µM. The TGI (EKVX NSCLC) was > 100 µM, the TGI (SNB-19 CNS) was > 100 µM and the TGI (PC-3 prostate) was > 100 µM. The TGI (MALME-3M melanoma) was > 100 µM, the TGI (SN12C renal) was > 100 µM and the TGI (SR leukemia) was 39.5 µM and 54.6 µM. For the same compound, the TGI (NCI-H522 lung) was > 100 µM, the TGI (HOP-92 NSCLC) was 88.8 µM and 98.5 µM and the TGI (M14 melanoma) was > 100 µM. For the same compound, the TGI (HCT-116 colon) was > 100 µM, the TGI (DU-145 prostate) was > 100 µM and the TGI (T-47D breast) was 81.6 µM and > 100 µM. The TGI (NCI-H226 lung) was > 100 µM, the TGI (U251 CNS) was > 100 µM and the TGI (OVCAR-8 ovarian) was > 100 µM. The TGI (IGROV1 ovarian) was > 100 µM, the TGI (UACC-257 melanoma) was > 100 µM and the TGI (SK-MEL-28 melanoma) was > 100 µM. For the same compound, the TGI (MDA-N) was > 100 µM, the TGI (SF-268 CNS) was > 100 µM and the TGI (OVCAR-5 ovarian) was > 100 µM. The TGI (MCF7 breast) was > 100 µM, the TGI (MOLT-4 leukemia) was 51.1 µM and 48 µM and the TGI (RXF 393 renal) was > 100 µM and 98.2 µM. For the same compound, the TGI (SK-MEL-5 melanoma) was > 100 µM, the TGI (SK-MEL-2 melanoma) was > 100 µM and the TGI (COLO 205 colon) was > 100 µM. The TGI (CCRF-CEM leukemia) was 77.8 µM and 98.3 µM, the TGI (SF-295 CNS) was > 100 µM and the TGI (NCI-H460 lung) was > 100 µM. For the same compound, the TGI (HCC-2998 colon) was 60.9 µM and > 100 µM.

For `CCCCCCCCCCCCCCCCCCNc1ccn(C2OC(COP(=O)(O)OCC3OC(n4cc(F)c(=O)[nH]c4=O)CC3O)C(O)C2O)c(=O)n1` (stereo unspecified), the TGI (A498 renal) was > 100 µM, the TGI (K-562 leukemia) was > 100 µM and the TGI (ACHN renal) was > 100 µM. The TGI (OVCAR-3 ovarian) was > 100 µM, the TGI (SK-OV-3 ovarian) was > 100 µM and the TGI (SNB-75 CNS) was > 100 µM. For the same compound, the TGI (HL-60(TB) leukemia) was 22.1 µM, the TGI (BT-549 breast) was > 79.7 µM and the TGI (LOX IMVI melanoma) was 18.2 µM. The TGI (OVCAR-4 ovarian) was > 100 µM, the TGI (HT29 colon) was > 84.3 µM and the TGI (A549 NSCLC) was > 100 µM. The TGI (UO-31 renal) was > 100 µM, the TGI (HS 578T breast) was > 100 µM and the TGI (786-0 renal) was > 100 µM. For the same compound, the TGI (KM12 colon) was 41.8 µM, the TGI (MDA-MB-435) was > 100 µM and the TGI (HOP-62 NSCLC) was > 100 µM. The TGI (UACC-62 melanoma) was > 74.4 µM, the TGI (NCI-H23 lung) was 17.9 µM and the TGI (HCT-15 colon) was > 100 µM. For the same compound, the TGI (NCI/ADR-RES ovarian) was > 54.8 µM, the TGI (SW-620 colon) was > 100 µM and the TGI (RPMI-8226 leukemia) was > 53.3 µM. The TGI (MDA-MB-231 breast) was > 100 µM, the TGI (CAKI-1 renal) was > 100 µM and the TGI (EKVX NSCLC) was > 100 µM. The TGI (SNB-19 CNS) was > 100 µM, the TGI (PC-3 prostate) was 19.7 µM and the TGI (MALME-3M melanoma) was > 100 µM. For the same compound, the TGI (SN12C renal) was > 100 µM, the TGI (SR leukemia) was 28.8 µM and the TGI (NCI-H522 lung) was > 100 µM. The TGI (HOP-92 NSCLC) was > 100 µM, the TGI (M14 melanoma) was > 78.1 µM and the TGI (HCT-116 colon) was > 100 µM. For the same compound, the TGI (DU-145 prostate) was > 100 µM, the TGI (T-47D breast) was > 100 µM and the TGI (NCI-H226 lung) was > 100 µM. The TGI (U251 CNS) was > 100 µM, the TGI (OVCAR-8 ovarian) was > 100 µM and the TGI (IGROV1 ovarian) was 35.8 µM. The TGI (TK-10 renal) was > 55.5 µM, the TGI (UACC-257 melanoma) was > 100 µM and the TGI (SK-MEL-28 melanoma) was > 100 µM. The TGI (MDA-N) was > 100 µM, the TGI (SF-268 CNS) was > 50 µM and the TGI (OVCAR-5 ovarian) was 39.7 µM. The TGI (MCF7 breast) was > 48.6 µM, the TGI (MOLT-4 leukemia) was 25.2 µM and the TGI (RXF 393 renal) was 35.6 µM. The TGI (SK-MEL-5 melanoma) was > 100 µM, the TGI (SK-MEL-2 melanoma) was > 100 µM and the TGI (COLO 205 colon) was > 80.4 µM. For the same compound, the TGI (CCRF-CEM leukemia) was > 49.7 µM, the TGI (SF-295 CNS) was > 100 µM and the TGI (NCI-H460 lung) was > 100 µM. The TGI (HCC-2998 colon) was > 100 µM.
